# HELM strings list units from the 5' end as sugar, base in round brackets, then linkage (d deoxyribose, r ribose, m 2'-O-methyl, p phosphodiester). Strings are as the collection lists them; they lack the last nucleoside at the 3' end of the tested compound. [moe] = 2'-O-(2-methoxyethyl) (MOE); [sp] = phosphorothioate linkage; [m5C] = 5-methylcytosine
# Molecular target: PRNP
# Assay: mouse, dose not given
# Conditions: ASO
row,Substance,3 h FOB score [score 0-7]
1,RNA1{[moe](G)[sp].[moe]([m5C])p.[moe](T)p.[moe](T)p.[moe]([m5C])[sp].d(T)[sp].d([m5C])[sp].d(A)[sp].d(A)[sp].d(T)[sp].d(T)[sp].d(T)[sp].d(T)[sp].d(T)[sp].d([m5C])[sp].[moe]([m5C])p.[moe](A)p.[moe](A)[sp].[moe]([m5C])}$$$$ (last 3' nucleoside missing),0
2,RNA1{[moe]([m5C])[sp].[moe](T)p.[moe](A)p.d(T)[sp].d(G)[sp].d(T)[sp].d(T)[sp].d(T)[sp].d(T)[sp].d([m5C])[sp].d([m5C])[sp].d(A)[sp].d(G)[sp].[moe](T)p.[moe](G)p.[moe]([m5C])p.[moe]([m5C])p.[moe]([m5C])[sp].[moe](A)}$$$$ (last 3' nucleoside missing),0.25
3,RNA1{[moe](A)[sp].[moe](T)p.[moe](G)p.[moe](T)p.[moe](T)[sp].d(A)[sp].d([m5C])[sp].d(A)[sp].d(G)[sp].d(T)[sp].d(T)[sp].d(A)[sp].d(T)[sp].d(G)[sp].d(T)[sp].[moe](T)p.[moe]([m5C])p.[moe](A)[sp].[moe]([m5C])}$$$$ (last 3' nucleoside missing),2.5
4,RNA1{[moe](T)[sp].[moe]([m5C])p.[moe](T)p.[moe](A)p.[moe](T)p.d(G)[sp].d(T)[sp].d(T)[sp].d(T)[sp].d(T)[sp].d([m5C])[sp].d([m5C])[sp].d(A)[sp].d(G)[sp].[moe](T)p.[moe](G)p.[moe]([m5C])[sp].[moe]([m5C])}$$$$ (last 3' nucleoside missing),0
5,RNA1{[moe](G)[sp].[moe]([m5C])p.[moe](T)p.[moe](A)p.[moe](T)[sp].d([m5C])[sp].d(T)[sp].d(T)[sp].d(T)[sp].d([m5C])[sp].d(T)[sp].d(A)[sp].d(T)[sp].d(T)[sp].d(T)[sp].[moe](G)p.[moe](T)p.[moe](G)[sp].[moe](T)}$$$$ (last 3' nucleoside missing),1
6,RNA1{[moe](A)[sp].[moe](A)p.[moe](T)p.[moe]([m5C])p.[moe](A)[sp].d(T)[sp].d(T)[sp].d([m5C])[sp].d(T)[sp].d(G)[sp].d(G)[sp].d(T)[sp].d(T)[sp].d(T)[sp].d([m5C])[sp].[moe]([m5C])p.[moe](A)p.[moe](G)[sp].[moe](G)}$$$$ (last 3' nucleoside missing),0.5
7,RNA1{[moe]([m5C])[sp].[moe](G)p.[moe](T)p.[moe]([m5C])p.[moe]([m5C])p.[moe](A)p.d(T)[sp].d(T)[sp].d(T)[sp].d(T)[sp].d([m5C])[sp].d(T)[sp].d(G)[sp].d(T)[sp].d(G)[sp].d([m5C])[sp].[moe](T)p.[moe](T)[sp].[moe](T)}$$$$ (last 3' nucleoside missing),6.25
8,RNA1{[moe](A)[sp].[moe]([m5C])p.[moe](T)p.[moe]([m5C])p.d(T)[sp].d(A)[sp].d(T)[sp].d(G)[sp].d(T)[sp].d(T)[sp].d(T)[sp].d(T)[sp].d([m5C])[sp].d([m5C])[sp].[moe](A)p.[moe](G)p.[moe](T)p.[moe](G)[sp].[moe]([m5C])}$$$$ (last 3' nucleoside missing),1.5
9,RNA1{[moe](G)[sp].[moe]([m5C])p.[moe](T)p.[moe](T)p.[moe](A)p.d(T)[sp].d(T)[sp].d(A)[sp].d(T)[sp].d(T)[sp].d([m5C])[sp].d(A)[sp].d(T)[sp].d(G)[sp].[moe](T)[sp].[moe](T)p.[moe]([m5C])p.[moe](T)}$$$$ (last 3' nucleoside missing),1
10,RNA1{[moe](A)[sp].[moe](A)p.[moe](T)p.[moe](T)p.[moe](T)[sp].d([m5C])[sp].d(T)[sp].d(T)[sp].d(T)[sp].d(T)[sp].d(T)[sp].d([m5C])[sp].d([m5C])[sp].d(A)[sp].d([m5C])[sp].[moe](T)p.[moe](T)p.[moe]([m5C])[sp].[moe](A)}$$$$ (last 3' nucleoside missing),0
11,RNA1{[moe](A)[sp].[moe]([m5C])p.[moe](T)p.[moe]([m5C])p.[moe](T)p.[moe](A)p.d(T)[sp].d(G)[sp].d(T)[sp].d(T)[sp].d(T)[sp].d(T)[sp].d([m5C])[sp].d([m5C])[sp].d(A)[sp].d(G)[sp].[moe](T)p.[moe](G)[sp].[moe]([m5C])}$$$$ (last 3' nucleoside missing),1.25
12,RNA1{[moe](G)[sp].[moe](T)p.[moe](T)p.[moe]([m5C])p.[moe](A)[sp].d(G)[sp].d(A)[sp].d(G)[sp].d(A)[sp].d(A)[sp].d(T)[sp].d([m5C])[sp].d(T)[sp].d(T)[sp].d(T)[sp].[moe]([m5C])p.[moe](A)p.[moe]([m5C])[sp].[moe]([m5C])}$$$$ (last 3' nucleoside missing),0
13,RNA1{[moe](G)[sp].[moe](T)p.[moe]([m5C])p.[moe](A)p.[moe](A)[sp].d(A)[sp].d(A)[sp].d(T)[sp].d([m5C])[sp].d(A)[sp].d(T)[sp].d(T)[sp].d([m5C])[sp].d(T)[sp].d(G)[sp].[moe](G)p.[moe](T)p.[moe](T)[sp].[moe](T)}$$$$ (last 3' nucleoside missing),1
14,RNA1{[moe](T)[sp].[moe](G)p.[moe](T)p.[moe](T)p.[moe](T)[sp].d(G)[sp].d(T)[sp].d(T)[sp].d(T)[sp].d([m5C])[sp].d(T)[sp].d(T)[sp].d([m5C])[sp].d([m5C])[sp].d(A)[sp].[moe](T)p.[moe](T)p.[moe](G)[sp].[moe]([m5C])}$$$$ (last 3' nucleoside missing),1
15,RNA1{[moe](A)[sp].[moe](A)p.[moe](T)p.[moe]([m5C])p.[moe](A)[sp].d(T)[sp].d(A)[sp].d(T)[sp].d(T)[sp].d(T)[sp].d([m5C])[sp].d(T)[sp].d(G)[sp].d(T)[sp].d([m5C])[sp].[moe](A)p.[moe](T)p.[moe]([m5C])[sp].[moe](T)}$$$$ (last 3' nucleoside missing),5
16,RNA1{[moe](G)[sp].[moe](T)p.[moe]([m5C])p.[moe](A)p.[moe](G)[sp].d(T)[sp].d(T)[sp].d(T)[sp].d(T)[sp].d(T)[sp].d([m5C])[sp].d([m5C])[sp].d([m5C])[sp].d([m5C])[sp].d(A)[sp].[moe]([m5C])p.[moe](A)p.[moe](T)[sp].[moe](A)}$$$$ (last 3' nucleoside missing),1
17,RNA1{[moe](G)[sp].[moe](T)p.[moe](T)p.[moe](G)p.[moe](T)[sp].d(T)[sp].d(G)[sp].d(T)[sp].d(T)[sp].d(T)[sp].d([m5C])[sp].d(T)[sp].d(T)[sp].d(T)[sp].d(T)[sp].[moe]([m5C])p.[moe](T)p.[moe](G)[sp].[moe](G)}$$$$ (last 3' nucleoside missing),6
18,RNA1{[moe]([m5C])[sp].[moe]([m5C])p.[moe](T)p.[moe](T)p.[moe](T)[sp].d([m5C])[sp].d(A)[sp].d(T)[sp].d(A)[sp].d(T)[sp].d(A)[sp].d(T)[sp].d(G)[sp].d(T)[sp].d(T)[sp].[moe](A)p.[moe]([m5C])p.[moe](A)[sp].[moe](G)}$$$$ (last 3' nucleoside missing),5
19,RNA1{[moe](G)[sp].[moe](T)p.[moe]([m5C])p.[moe]([m5C])p.[moe](A)[sp].d(T)[sp].d(T)[sp].d(T)[sp].d(T)[sp].d([m5C])[sp].d(T)[sp].d(G)[sp].d(T)[sp].d(G)[sp].d([m5C])[sp].[moe](T)p.[moe](T)p.[moe](T)[sp].[moe](T)}$$$$ (last 3' nucleoside missing),4.5
20,RNA1{[moe](T)[sp].[moe]([m5C])p.[moe](A)p.[moe](T)p.[moe]([m5C])[sp].d(A)[sp].d(T)[sp].d(T)[sp].d(T)[sp].d(T)[sp].d(G)[sp].d([m5C])[sp].d([m5C])[sp].d(A)[sp].d(T)[sp].[moe](T)p.[moe](T)p.[moe](A)[sp].[moe](T)}$$$$ (last 3' nucleoside missing),6
21,RNA1{[moe]([m5C])[sp].[moe](T)p.[moe](A)p.[moe](T)p.[moe](G)p.d(T)[sp].d(T)[sp].d(T)[sp].d(T)[sp].d([m5C])[sp].d([m5C])[sp].d(A)[sp].d(G)[sp].d(T)[sp].[moe](G)[sp].[moe]([m5C])p.[moe]([m5C])p.[moe]([m5C])}$$$$ (last 3' nucleoside missing),0.75
22,RNA1{[moe](G)[sp].[moe]([m5C])p.[moe](T)p.[moe](T)p.d(A)[sp].d(T)[sp].d(T)[sp].d(A)[sp].d(T)[sp].d(T)[sp].d([m5C])[sp].d(A)[sp].d(T)[sp].d(G)[sp].[moe](T)p.[moe](T)p.[moe]([m5C])p.[moe](T)[sp].[moe]([m5C])}$$$$ (last 3' nucleoside missing),1
23,RNA1{[moe](G)[sp].[moe](G)p.[moe]([m5C])p.[moe](A)p.[moe](A)[sp].d(A)[sp].d(G)[sp].d(G)[sp].d(T)[sp].d(A)[sp].d(T)[sp].d(T)[sp].d(T)[sp].d([m5C])[sp].d(A)[sp].[moe](G)p.[moe](A)p.[moe]([m5C])[sp].[moe](T)}$$$$ (last 3' nucleoside missing),6.5
24,RNA1{[moe](T)[sp].[moe](G)p.[moe](G)p.[moe]([m5C])p.[moe](T)[sp].d(T)[sp].d(A)[sp].d([m5C])[sp].d(T)[sp].d([m5C])[sp].d(G)[sp].d(G)[sp].d([m5C])[sp].d(T)[sp].d(T)[sp].[moe](G)p.[moe](T)p.[moe](T)[sp].[moe]([m5C])}$$$$ (last 3' nucleoside missing),3.75
25,RNA1{[moe]([m5C])[sp].[moe](T)p.[moe](T)p.[moe](T)p.[moe](T)[sp].d([m5C])[sp].d(T)[sp].d(T)[sp].d(T)[sp].d(G)[sp].d([m5C])[sp].d(A)[sp].d([m5C])[sp].d(A)[sp].d([m5C])[sp].[moe](T)p.[moe](G)p.[moe](A)[sp].[moe]([m5C])}$$$$ (last 3' nucleoside missing),4
26,RNA1{[moe]([m5C])[sp].[moe](T)[sp].[moe](A)p.[moe](T)p.[moe](G)p.[moe](T)p.[moe](T)p.d(T)[sp].d(T)[sp].d([m5C])[sp].d([m5C])[sp].d(A)[sp].d(G)[sp].d(T)[sp].d(G)[sp].d([m5C])[sp].d([m5C])[sp].[moe]([m5C])p.[moe](A)}$$$$ (last 3' nucleoside missing),4.75

# — the OligoGym collection
